Results as given in article PMC5515887, “Ruthenium-conjugated chrysin analogues modulate platelet activity, thrombus formation and haemostasis with enhanced efficacy” (Scientific Reports, 2017).
Like-named read-outs stand apart in the source and are kept apart here.

Key:
human washed platelets = assay: Intracellular calcium mobilisation in washed platelets (Fluo-4 AM); type: cell-based; details: CRP-XL 0.5 μg/mL
Experimental: Based on the above results achieved in washed platelets and PRP, chrysin and Ru-thio-chrysin were tested to evaluate their effects on the modulation of calcium mobilisation.
The calcium traces (Ai and Bi) shown are representative of three separate experiments. The maximum fluorescence obtained with each sample was converted into percentages to calculate the level of calcium mobilisation obtained with vehicle and chrysin or Ru-thio-chrysin treated samples.
The intracellular calcium levels in platelets were measured using Fluo-4 AM calcium-sensitive dye by spectrofluorimetry. […] Data were analysed by calculating the maximum level of calcium released in each sample.

washed human platelets = assay: Platelet uptake by LC-MS; type: in vitro ADME; details: 100 μM compound, 5 minutes
Experimental: The compounds taken up by the platelets were extracted with methanol (400 µL). The methanol extract was dried using vacuum centrifugation and reconstituted in 200 µL of methanol for mass spectrometry (LC-MS) analysis.

platelets (PRP) = assay: LDH cytotoxicity assay in PRP; type: cell-based, human; details: between 6.25 and 100 μM
Experimental: In order to examine whether the native chrysin and its synthetic derivatives exert any cytotoxic effects in platelets at the concentrations used in this study, the lactate dehydrogenase (LDH) assay was performed using PRP.
The LDH cytotoxicity assay was performed using the LDH Cytotoxicity Assay Kit (Pierce, Thermo Fisher, UK) according to the manufacturer’s instructions. In brief, the PRP was incubated at 37 °C for 30 minutes. […] Following incubation, the reaction mixture (provided in the kit) was added to the PRP and incubated for 30 minutes. The reaction was then stopped using a stop solution provided in the kit. The absorbance of the mixture was measured at 490–650 nm using a Fluostar Optima spectrofluorimeter (BMG Labtech, Germany). Results provided represent duplicate absorbance measures from three separate donors.
Figure S7: Cytotoxic effects of chrysin and its synthetic derivatives in platelets. PRP was treated with different concentrations (as used in other experiments) of chrysin or its synthetic derivatives and the LDH cytotoxicity assay was performed according to the manufacturer’s instructions. The data were obtained using platelets from three separate donors and duplicate measures were used for each donor.
(1 picture or pasted object on this page, not shown here)

[1] = tested on: human platelet-rich plasma; details: PRP; 100 μM compound; CRP-XL 0.5 μg/mL
Text: The calcium traces (Ai and Bi) shown are representative of three separate experiments. […] The platelets were lysed and used for immunoblot analysis to detect the level of AKT phosphorylation at residue S473, FAK phosphorylation at Y397 and phosphorylation of Src at Y527. The level of 14-3-3ζ protein was detected as a loading control. The cropped images of the blots shown here are representative of three separate experiments. The uncropped full length blots are presented in Supplementary Information (Figure S8).

[2] = tested on: inside-out signalling to integrin αIIbβ3; details: PRP, CRP-XL 0.5 μg/mL
Experimental: The level of fluorescence obtained with vehicle control was taken as 100% to calculate the extent of inhibition in chrysin and its derivatives-treated samples. R represents ‘resting’ platelets. Cumulative data represent mean ± S.D. (n = 4). […] Following incubation, clotting was initiated by the addition of 1 U/mL thrombin and the clot retraction was monitored for three hours. The remaining clot weight at three hours was measured to analyse the extent of retraction process. The image shown on the right is representative of four separate experiments. *Indicates significance with respect to controls and ^#indicates significance with respect to the respective chrysin concentrations; p values shown (*^,# p < 0.05, **^,## p < 0.01 and ***^,### p < 0.001) are as calculated by one-way ANOVA using Graphpad Prism.
The platelets (PRP) were treated with a vehicle control [0.1% (v/v) DMSO] or with different concentrations of chrysin and its synthetic derivatives prior to activation with CRP-XL (0.5 µg/mL). The levels of fibrinogen binding and P-selectin exposure were measured using FITC-labelled anti-human fibrinogen antibodies (Dako, UK) and PECy5-labelled CD62P antibodies (BD Biosciences, UK), respectively. The median fluorescence intensity was used to assess the levels of fibrinogen binding and P-selectin exposure on the platelet surface. The level of fluorescence obtained with the vehicle control was taken as 100% when compared with the treated samples.

Molecule | effect on calcium mobilisation in washed platelets (human washed platelets) | uptake in platelets (washed human platelets) | cytotoxic effects in platelets (LDH) (platelets (PRP)) | reduction in calcium mobilisation [1] | inhibition of fibrinogen binding ([2]; 6.25 μM compound) | inhibition of fibrinogen binding ([2]; 100 μM compound)
O=c1cc(-c2ccccc2)oc2cc(O)cc(O)c12 [chrysin] | greater inhibitory effects on calcium mobilisation than Ru-thio-chrysin | 6.86 ± 0.27 µM | did not show significant cytotoxic effects | – | – | –
chlorido [(5-oxo-κO)-7-hydroxy-(2-phenyl)-4H-chromen-4-thionato-κS] (η6-p-cymene)ruthenium(II) [Ru-thio-chrysin] | – | – | – | around 60% | 15–20% | ~90%
